Assay results taken from patent US20250230138A1, “COMPOUNDS HAVING A T-STRUCTURE FORMED BY AT LEAST FOUR CYCLES FOR USE IN THE TREATMENT OF CANCER AND OTHER INDICATIONS” (TheRas, Inc., priority 2022, published 2025).
Like-named read-outs stand apart in the source and are kept apart here.

Legend:
pAKT in BT474 cells = assay: Cell-based pAKT HTRF assay in BT474 cells; conditions: BT474 cells, 4 hr incubation, read-out: pAKT inhibition IC50 in BT474 cells
Experimental: On Day 1, cells were seeded into 96-well plates at 2.5×10^4 cells/well in complete growth media (DMEM, 10% FBS). On Day 2, cells were treated with compounds at 0.25% DMSO. The source plate was created with compounds diluted in media at 5-fold the final assay concentration. The compounds are run in a 9-point concentration curve starting at 3 μM, with a 3-fold dilution between concentrations. 20 μL was transferred onto the cell plates (final volume in wells was 100 μL). Plates were harvested after 4 hr incubation by aspirating media and adding kit-supplied 1× supplemented lysis buffer to all wells (75 μL per well). Plates were then placed on a plate shaker and incubated at 850 rpm for an additional 30 min. The antibody mixture solution was prepared by diluting aliquoted d2 and Eu Cryptate antibodies 1:20 in kit supplied detection buffer, then mixed the diluted antibodies solutions (1:1 v:v). 4 μL of this solution was then added to a 384-well detection plate (Perkin Elmer; 6008230). Samples were homogenized by pipetting up and down and then transferred (16 μL of cell lysates) from the 96-well cell culture plate to two wells of the HTRF 384-well detection plate containing the antibody solution. Plates were centrifuged (524 g for 1 min) and allowed to incubate between 4 and 24 h at room temperature. The maximum signal is reached after 4 h incubation time and remains stable over a period of 24 hours. Therefore, readings can be made between 4 and 24 h of incubation. Plates were centrifuged again (524 g for 1 m), and analyzed on the EnVision plate reader using the following settings: Excitation 320 nm, Bandwidth […]; Emission 615 nm, Bandwidth […], Gain 10000, Flashes 100, Lag 60 μs.

[1] = biological target: Cys242 in human PIK3CA (157-299) (Homo sapiens (Human), UniProt P42336); assay: Covalent modification assay using MALDI-TOF MS; type: biochemical; conditions: 4 h reaction time point
Experimental: Matrix-Assisted Laser Desorption Ionization-Time of Flight Mass Spectrometry (MALDI-TOF MS) analysis of covalent modification of Cys242 in human PIK3CA (157-299) was performed.
Reaction: 3.33 μM or 1 μM of PIK3CA (157-299) protein (produced in-house by Protein Expression Laboratory, FNLCR/Leidos Biomed) in 20 mM HEPES buffer containing 150 mM NaCl, 2 mM MgCl2, pH 7.3 was prepared freshly before assay. Twelve-μL aliquots of protein were dispensed onto low volume 384-well plate, then 470 nL DMSO and 30 nL of tested compounds from 10 mM DMSO stocks were added to appropriate wells using ECHO 555 acoustic liquid handler (Labcyte Inc.). For each reaction/assay, three blanks were prepared by mixing 12 μL of protein solution with 500 nL DMSO. The wells content was carefully mixed by aspiration, and then the plate was sealed by an adhesive cover, centrifuged at 931 g for 1 minute, and kept in the dark at room temperature until 15 min, 30 min, 2 h, or 4 h collections.
Targetpretreatment: Before each assay MALDI target (Bruker MPT 384 ground steel BC) was pre-treated by pipetting on each spot 0.75 μL of saturated sinapinic acid in acetonitrile (ACN).
Sample preparation: At collection time point, 2 μL of reaction mixtures were pipetted out into […] MALDI matrix solution (saturated solution of sinapinic acid in 1:1 ACN:water solution containing 0.15% trifluoroacetic acid (TFA)) deposited on 384 well polypropylene plate. The resulting solution was mixed by aspiration, centrifuged at 931 g for 1 minute, then 1.5 μL aliquots were dispensed on pre-treated MALDI target using Beckman Coulter Biomek FX^P 96/384-Span-8 Laboratory Automation Workstation. Finally, the MALDI target was dried under a mild vacuum to produce spots with a fine crystalline structure.
Measurements: MALDI-TOF measurements were performed on Bruker Daltonics rapifleX Tissuetyper TOF-TOF mass spectrometer using linear mode and mass ranging from 16.0 to 19.6 kDa. Detector gain was set to 0.64×(459 V), sample rate to 5 GS/s, real-time smoothing to medium (175 MHz), laser smart beam pattern was set to “Custom” single smartbeam beam scan with a scan range of 40 μm on both X and Y axis, and the laser frequency was 10000 Hz. Spectra were automatically collected using the custom AutoXecute method. Laser power was auto adjusted using fuzzy control. The peak selection range was set to be between 16.0 and 18.5 kDa. Peak evaluation uses a half-width parameter set to be smaller than 40 Da for processed spectrograms (centroid peak detection; smoothed by SavitzkyGolay algorithm using 7 m/z width and 2 cycles; baseline was subtracted using a median algorithm with flatness 1 and median level 0). Fuzzy control used Proteins/Oligonucleotides protocol with minimum half-width 1/10 times above threshold. Up to 40000 satisfactory shots were collected in 10000 short steps. Dynamic termination was implemented to finish data collection when the peak signal/noise ratio was reaching a value of 1000.
Spectra processing: Spectra were smoothed by SavitzkyGolay algorithm using 7 m/z width and three cycles. Centroid peak detection algorithm was used with signal to noise threshold set to 6, relative intensity threshold 3%, peak width 10 m/z, and median baseline subtraction using flatness of 1 and the median level of 0.1. Peak intensity and area under the peak were evaluated and recorded for all peaks between 16.0 and 19.5 kDa.
Calculation of percent modification: Percent modification was calculated as a ratio of peak height for protein modified by compound to the sum of the peak height of remaining protein plus peak height for protein modified by a compound. If multiple modifications were observed each was calculated as a ratio of peak height for given modification versus the sum of peak heights for all observed protein species.

[2] = 3.33 μM protein target, 1:7.5 protein to compound ratio (compounds 1-852)
[3] = 1 μM protein target, 1:5 protein to compound ratio (compounds 853-1279)

Sequence of Cys242 in human PIK3CA (157-299) (P42336 157-299): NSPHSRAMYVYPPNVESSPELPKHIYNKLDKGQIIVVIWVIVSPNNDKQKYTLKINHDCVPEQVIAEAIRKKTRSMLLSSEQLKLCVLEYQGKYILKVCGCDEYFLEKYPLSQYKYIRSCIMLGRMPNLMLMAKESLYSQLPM

C=CC(=O)N1CCc2nc(-c3nc(-c4ccc5c(c4)CNC5=O)c4ccsc4c3-c3c(F)cc(F)cc3OC(C)C)sc2C1 (single isomer, unassigned) [Compound 413]
IC50 (pAKT in BT474 cells; Compounds 10-999): 1000 to 3000 nM
% of modification [1, 2]: D (percent of modification <25%)

C=CC(=O)N1CCc2nc(-c3nc(-c4ccc5c(c4)CNC5=O)c4ccsc4c3-c3c(F)cc(F)cc3OC(C)C)sc2C1 (single isomer, unassigned) [Compound 414]
IC50 (pAKT in BT474 cells; Compounds 10-999): < 100 nM
% of modification [1, 2]: A (percent of modification of PIK3CA protein ≥75%)

C=CC(=O)N1CCc2nc(-c3nc(-c4ccc5c(c4)CCN(C)C5)c4ccsc4c3-c3c(F)cc(F)cc3OC(C)C)sc2C1 (single isomer, unassigned) [Compound 447]
IC50 (pAKT in BT474 cells; Compounds 10-999): 100 to 1000 nM
% of modification [1, 2]: D (percent of modification <25%)

C=CC(=O)N1CCc2nc(-c3nc(-c4ccc5c(c4)CCN(C)C5)c4ccsc4c3-c3c(F)cc(F)cc3OC(C)C)sc2C1 (single isomer, unassigned) [Compound 448]
IC50 (pAKT in BT474 cells; Compounds 10-999): < 100 nM
% of modification [1, 2]: A (percent of modification of PIK3CA protein ≥75%)

C=CC(=O)N1CCc2nc(-c3nc(-c4ccc5c(c4)CCN(C)C5)c4ccsc4c3-c3c(F)cc(F)cc3OCCOC)sc2C1 (single isomer, unassigned) [Compound 449]
IC50 (pAKT in BT474 cells; Compounds 10-999): 1000 to 3000 nM
% of modification [1, 2]: D (percent of modification <25%)

C=CC(=O)N1CCc2nc(-c3nc(-c4ccc5c(c4)CCN(C)C5)c4ccsc4c3-c3c(F)cc(F)cc3OCCOC)sc2C1 (single isomer, unassigned) [Compound 450]
IC50 (pAKT in BT474 cells; Compounds 10-999): < 100 nM
% of modification [1, 2]: A (percent of modification of PIK3CA protein ≥75%)

C=C(F)C(=O)N1CCn2nc(-c3nc(-c4ccc5c(c4)CCN(C)C5)c4ccsc4c3-c3c(F)cc(F)cc3OC(C)C)cc2C1 (single isomer, unassigned) [Compound 486]
IC50 (pAKT in BT474 cells; Compounds 10-999): < 100 nM
% of modification [1, 2]: A (percent of modification of PIK3CA protein ≥75%)

C=C(F)C(=O)N1Cc2cc(-c3nc(-c4ccc5c(c4)CCN(C)C5)c4ccsc4c3-c3c(F)cc(F)cc3OC(C)C)nn2CC1C (single isomer, unassigned) [Compound 500]
IC50 (pAKT in BT474 cells; Compounds 10-999): > 3000 nM
% of modification [1, 2]: D (percent of modification <25%)

C=C(F)C(=O)N1Cc2cc(-c3nc(-c4ccc5c(c4)CCN(C)C5)c4ccsc4c3-c3c(F)cc(F)cc3OC(C)C)nn2CC1C (single isomer, unassigned) [Compound 501]
IC50 (pAKT in BT474 cells; Compounds 10-999): 100 to 1000 nM
% of modification [1, 2]: D (percent of modification <25%)

C=CC(=O)N1CCc2nc(-c3nc(-c4cnc5c(c4)CNC(=O)C5)c4ccsc4c3-c3c(F)cc(F)cc3OC(C)C)sc2C1 (single isomer, unassigned) [Compound 587]
IC50 (pAKT in BT474 cells; Compounds 10-999): > 3000 nM
% of modification [1, 2]: D (percent of modification <25%)

C=CC(=O)N1CCc2nc(-c3nc(-c4cnc5c(c4)CNC(=O)C5)c4ccsc4c3-c3c(F)cc(F)cc3OC(C)C)sc2C1 (single isomer, unassigned) [Compound 588]
IC50 (pAKT in BT474 cells; Compounds 10-999): < 100 nM
% of modification [1, 2]: A (percent of modification of PIK3CA protein ≥75%)

C=CC(=O)N1CCc2ccc(-c3nc(-c4ccc5c(c4)CNC5=O)c4ccsc4c3-c3c(F)cc(F)cc3OCCOC)cc2C1 (single isomer, unassigned) [Compound 886]
IC50 (pAKT in BT474 cells; Compounds 10-999): > 3000 nM
% of modification [1, 3]: D (percent of modification <25%)

C=CC(=O)N1CCc2ccc(-c3nc(-c4ccc5c(c4)CNC5=O)c4ccsc4c3-c3c(F)cc(F)cc3OCCOC)cc2C1 (single isomer, unassigned) [Compound 887]
IC50 (pAKT in BT474 cells; Compounds 10-999): < 100 nM
% of modification [1, 3]: A (percent of modification of PIK3CA protein ≥75%)

C=CC(=O)N1CCCC1Cn1cc(-c2nc(-c3ccc4c(c3)CCNC4)c3ccsc3c2-c2ccc(F)cc2OCCOC)cn1 (stereo not drawn) [Compound 63]
% of modification [1, 2]: A (percent of modification of PIK3CA protein ≥75%)

C=CC(=O)N1CCc2ccc(-c3nc(-c4ccc5c(c4)CCNC5)c4ccsc4c3-c3ccc(F)cc3OCCOC)cc21 [Compound 65]
% of modification [1, 2]: D (percent of modification <25%)

C=CC(=O)N1CCCc2ccc(-c3nc(-c4ccc5c(c4)CCNC5)c4ccsc4c3-c3ccc(F)cc3OCCOC)cc21 [Compound 66]
% of modification [1, 2]: D (percent of modification <25%)

C=CC(=O)N[C@H]1CCc2ccc(-c3nc(-c4ccc5c(c4)CCNC5)c4ccsc4c3-c3ccc(F)cc3OCCOC)cc21 [Compound 81]
% of modification [1, 2]: D (percent of modification <25%)

CCC(=O)N1CC(n2cc(-c3nc(-c4ccc5c(c4)CCNC5)c4ccsc4c3-c3ccc(F)cc3OC)cn2)C1 [Compound 124]
IC50 (pAKT in BT474 cells; Compounds 10-999): > 3000 nM

COCCOc1cc(F)ccc1-c1c(-c2ccc(OC(C)C)cc2F)nc(-c2ccc3c(c2)CCNC3)c2ccsc12 [Compound 231]
IC50 (pAKT in BT474 cells; Compounds 10-999): > 3000 nM

CCC(=O)N1CCn2nc(-c3nc(-c4ccc5c(c4)CCNC5=O)c4ccsc4c3-c3ccc(F)cc3OC(C)C)nc2C1 [Compound 260]
IC50 (pAKT in BT474 cells; Compounds 10-999): > 3000 nM

CCC(=O)N1CCn2nc(-c3nc(-c4ccc5c(c4)CCNC5=O)c4ccsc4c3-c3ccc(F)cc3OC(C)C)cc2C1 [Compound 269]
IC50 (pAKT in BT474 cells; Compounds 10-999): 100 to 1000 nM

C=CC(=O)N1CCn2nc(-c3nc(-c4ccc5c(c4)CCN(C)C5)c4ccsc4c3-c3c(F)cc(F)cc3OC(C)C)cc2[C@@H]1C [Compound 540]
IC50 (pAKT in BT474 cells; Compounds 10-999): 1000 to 3000 nM

C=CC(=O)N1CCn2nc(-c3nc(-c4ccc5c(c4)CCN(C)C5)c4ccsc4c3-c3c(F)cc(F)cc3OC(C)C)cc2[C@@H]1C [Compound 541]
IC50 (pAKT in BT474 cells; Compounds 10-999): < 100 nM

C=CC(=O)N1CCn2nc(-c3nc(-c4ccc5c(c4)CCN(C)C5)c4ccsc4c3-c3c(F)cc(F)cc3OC(C)C)cc2[C@H]1C [Compound 542]
IC50 (pAKT in BT474 cells; Compounds 10-999): 100 to 1000 nM

C=CC(=O)N1CCn2nc(-c3nc(-c4ccc5c(c4)CCN(C)C5)c4ccsc4c3-c3c(F)cc(F)cc3OC(C)C)cc2[C@H]1C [Compound 543]
IC50 (pAKT in BT474 cells; Compounds 10-999): < 100 nM

CCC(=O)N1CCn2nc(-c3nc(-c4ccc5c(cnn5C)c4)c4ccsc4c3-c3c(F)cc(F)cc3OCCOC)cc2C1C (stereo not drawn) [Compound 1204]
IC50 (pAKT in BT474 cells; Compounds 1000-1279): > 1000 nM

CC1c2cc(-c3nc(-c4ccc5c(cnn5C)c4)c4ccsc4c3-c3c(F)cc(F)cc3OCCO)nn2CCN1C(=O)C(O)CO (stereo not drawn) [Compound 1235]
IC50 (pAKT in BT474 cells; Compounds 1000-1279): > 1000 nM

CC1c2cc(-c3nc(-c4ccc5c(cnn5C)c4)c4ccsc4c3-c3c(F)cc(F)cc3OCCO)nn2CCN1C(=O)C(O)CO (stereo not drawn) [Compound 1236]
IC50 (pAKT in BT474 cells; Compounds 1000-1279): > 1000 nM

COCCOc1cc(F)cc(F)c1-c1c(-c2cc3n(n2)CCN(C(=O)C(O)CO)C3C)nc(-c2ccc3c(cnn3C)c2)c2ccsc12 (stereo not drawn) [Compound 1241]
IC50 (pAKT in BT474 cells; Compounds 1000-1279): > 1000 nM
